Patent US20130005670A1, “COMBINATION COMPOSITION, COMPRISING AS ACTIVE INGREDIENTS L-CARNITlNE OR PROPIONYL L-CARNITlNE, FOR THE PREVENTION OR TREATMENT OF CHRONIC VENOUS INSUFFICIENCY” (SIGMA-TAU INDUSTRIE FARMACEUTICHE RIUNITE S.P.A., priority 2010, published 2013)

How the values were obtained:
[1] = test system: aortic rings precontracted by phenylephrine; test: relaxant effect on aortic rings precontracted by phenylephrine; design: species or system spontaneously hypertensive rats; conditions: 100 micro-molar each component, final concentration in organ chamber; SHR aortic rings precontracted by phenylephrine (1 micromolar); n=8
Protocol: Relaxant Effect on Aortic Rings of the Compounds Tested. The objective of this study was to investigate the vasoarelaxation effects of the compositions of the invention using isolated aorta from spontaneously hypertensive rats. The compounds tested were used at a concentration expressed as final concentration in the organ chamber. Male spontaneously hypertensive rats (SHR) 10-12 weeks old, weighing 250-300 g, were housed at 24±2° C. with 60±20% relative humidity, on a 12-h light-dark cycle. Rats were given free access to a diet of standard food and water. All experiments were performed according to the guidelines for the ethical treatment of animals of the European Union. The rats were killed by cervical dislocation and the aortae were rapidly dissected. The descending thoracic aorta was placed in a modified Krebs-Henseleit solution (PSS) containing (mM): NaCl 118, KCl 4.75, NaHCO3 25, MgSO4 1.2, CaCl2 1.8, KH2PO4 1.2 and glucose 11. After excess fat and connective tissue were removed, the aortae were cut into 2-3-mm rings. Aortic rings were mounted under a basal tension of 2 g in 20 mL organ baths containing PSS and attached to an isometric transducer (Harvard UF-1); the signal was recorded by a Powerlab data acquisition system (AD-Instruments). The tissue bath was maintained at 37° C. and bubbled with a 95% O2 and 5% CO2 gas mixture. The relaxant effect of compounds tested was assessed by adding the compound to aortic rings precontracted by phenylephrine (1 micromolar). After the aortae were contracted with phenylephrine and when the contractile response was reached, the test compound was added to the bath. All the results were expressed as a percentage of the maximal contraction of phenylephrine-induced responses. Results are expressed as percentages from the initial precontraction level. The significance was calculated on the actual contraction values means±SE (n=8 aorta preparations per group). Eight preparations were studied from a single aorta. The Student t-test was used as the comparison test for statistical analysis.

[2] = test system: croton oil-induced hemorrhoid model in rats; test: croton oil-induced hemorrhoid model in rats (recto-anus coefficient); type: in vivo, rat; conditions: 24 hours after induction with croton oil (3%); oral once per day for five days; 20 mg/kg propionyl L-carnitine or L-carnitine, 30 mg/kg troxerutine, diosmine or hesperidine; RAC = weight of recto-anus (mg)/body weight (g); n = 5 rats
Protocol: Reduction of the Swelling of the Recto-Anus, in Croton Oil-Induced Hemorrhoid Model in Rats.
Male SD rats (6 weeks old, approximately 140 g) were purchased from Harlan Sprague Dawley and allowed to acclimate for 1 week. The rats were maintained in a pathogen-free facility in accordance with the National Research Council of Laboratory Animal care and use guidelines. Each experiment was preformed with age-matched rats 7-8 weeks old. The croton oil-induced hemorrhoid model in rats was performed according to the method published by Nishiki (Nishiki et al. (1988) Folia Pharmacology Japan 92:215-225; Nishiki et al. (1988) Folia Pharmacol. Japan 92:227-240). Briefly, a cotton swab with a diameter of 4 mm soaked with 0.16 mL of inducer (deionized water: pyridine: ethyl ether: 6% croton oil/ethyl ether (1:4:5:10) was applied to the rat's anus for 12 seconds. The final concentration of croton oil was 3%. The edema developed linearly until 7-8 hours after application and the severity of the edema was sustained for more than 24 hours. Twenty-four hours later, recto-anus tissue (approx. 10 mm long) was isolated after the rats were euthanized. The weights of rat body and recto-anus were measured. The recto-anus coefficient (RAC) was calculated using the formula: weight of recto-anus (mg)/body weight (g).
The compounds of the invention were administered orally suspended in saline (1 mL) once per day for five days. Last treatment with the compounds of the invention was made the day of induction of oedema with croton oil.
The compounds of the invention were administered alone or in combination at the following doses: 20 mg/kg propionyl L-carnitine or L-carnitine; 30 mg/kg troxerutine, diosmine or hesperidine.
Twenty-four hours after hemorrhoid induction with croton oil the RAC of rats was determined.

Structure (SMILES)	% RELAXATION [1] [%]	RAC (recto-anus coefficient) [2]
C[C@@H]1O[C@@H](OC[C@H]2O[C@@H](Oc3c(-c4ccc(OCCO)c(OCCO)c4)oc4cc(OCCO)cc(O)c4c3=O)[C@H](O)[C@@H](O)[C@@H]2O)[C@H](O)[C@H](O)[C@H]1O [Troxerutine]	10	2.11
CCC(=O)O[C@H](CC(=O)[O-])C[N+](C)(C)C [Propionyl L-carnitine, propionyl L-carnitine]	28	1.96
C[N+](C)(C)C[C@H](O)CC(=O)[O-] [L-carnitine]	25	1.99
COc1ccc(-c2cc(=O)c3c(O)cc(O[C@@H]4O[C@H](CO[C@@H]5O[C@@H](C)[C@H](O)[C@@H](O)[C@H]5O)[C@@H](O)[C@H](O)[C@H]4O)cc3o2)cc1O [Diosmine, diosmine]	10	2.02
COc1ccc([C@@H]2CC(=O)c3c(O)cc(O[C@@H]4O[C@H](CO[C@@H]5O[C@@H](C)[C@H](O)[C@@H](O)[C@H]5O)[C@@H](O)[C@H](O)[C@H]4O)cc3O2)cc1O [Hesperidine, hesperidine]	9	2.07
